Data on three molecules can be found in patent publication US12259352B2, “Membrane enhanced sensors” (University Of Cincinnati, priority 2018, dated 2025).

For series [1] the following is noted: cited from earlier work.
Series [2] is described as follows: Cortisol transport through hydrophobic barrier (track-etch membrane with castor oil) to electrochemical aptamer sensor, FIG. 6B. To be noted: sensor solution hundreds of micrometers thick; track-etch membrane of 10% porosity filled with castor oil.

For `CCCCCC/C=C\CCCCCCCC(=O)O` [Palmitoleic Acid], the “Solubility in Water (in words)” value in series [1] is “Low”.
As for `CCCCC/C=C\C/C=C\C/C=C\C/C=C\CCCC(=O)O` [Arachidonic Acid], in series [1], the “Solubility in Water (in words)” value is recorded as “Negligible”.
On to `C[C@]12CCC(=O)C=C1CC[C@@H]1[C@@H]2[C@@H](O)C[C@@]2(C)[C@H]1CC[C@]2(O)C(=O)CO` [cortisol], for which the “concentration lag time (time for sensor solution to reach 90% of sample solution concentration)” value in series [2] is around 30 min.
